{"source": "patent US8444858B2", "about": "“Control of development of biofilms in industrial process water” (A.Y. Laboratories Ltd., priority 2001, dated 2013)", "key": {"[1]": {"test_system": "microorganisms, principally bacteria", "settings": "for silo/slime formers: Plate Count agar with high excess of glucose; for silo/total count: R2A Agar", "description": "Process water samples were drawn and immediately inactivated with sodium thiosulfate to degrade any residue of the biofilm inhibiting substance. Samples were then serially ten-fold diluted in a Trypton (DIFCO) saline dilution medium. The diluted samples were plated in molten R2A Agar (hereinafter=“total count”) and in molten Plate Count agar containing a high excess of glucose (hereinafter “slime formers”). The agar solidified at room temperature and the plates were incubated at 35° C. for 48 h."}, "[2]": {"assay": "De-inking plant field trial, residual H2O2, residual biofilm inhibiting substance and H2O2 consumption", "description": "A de-inking system had been using 7-10 kg H2O2 per ton of waste paper.\nThe reaction pH was Maintained at 9.8-10.0. The Production process was controlled to ensure synchronous metering of the two chemicals, continuous mixing at the predetermined molar ratio and reproducible production of a stable biofilm inhibiting substance stock solution for the duration of the trial and longer. […] After 850 minutes the dosing rate was reduced to 85 g/ton expressed as total Cl2 by feeding the biofilm inhibiting substance semi-continuously. Various parameters were monitored during start-up of the trial: Residual biofilm inhibiting substance was measured (using a Hach pocket colorimeter, total Cl2, based on the DPD method adapted from Standard Methods for Examination of Waste and Waste Water). […] When necessary, samples were diluted with DI water."}, "catalase (Merck)": {"test_system": "catalase (Merck)", "assay": "Inactivation of catalase, residual H2O2 laboratory test", "type": "biochemical", "description": "Freshly prepared biofilm inhibiting substance was added to the appropriate flasks containing diluted catalase at a pre-defined feed rate. The contents of the containers were mixed for 60 minutes at room temperature prior to addition of H2O2 (to a final H2O2 concentration of 3.5 g/l). After addition of the H2O2, the mixture was allowed to mix for 30 minutes at room temperature, at which point H2O2 residues were measured in each flask in accordance with the Dr. Lange Cuvette Test LCW 058, measured with LASA 20 (based on Jander/Blasius: Lehrbach der Analytischen and Praparative Anorganischen Chemie, as described in the Handbook of Photometrical Operation Analysis (October 1997)).\nSodium hypochlorite was diluted in DI water to a final concentration of 6000 ppm expressed as total chlorine. Ammonium bromide solution (equimolar to 1.1 mole of the diluted sodium hypochlorite solution, 10% excess on a molar basis) and ammonium chloride solution (equimolar to 1.1 mole of the diluted hypochlorite solution, 10% excess on a molar basis) were prepared. The diluted hypochlorite (50 ml) was added dropwise to 50 ml of the appropriate ammonium salt while the pH was constantly measured. The biofilm inhibiting substance concentration in the produced stock solution was immediately measured and the biofilm inhibiting substance at the appropriate feed level was immediately added to the test flasks."}, "[3]": {"test_system": "mixed culture of slime-forming-bacteria which had been isolated from a paper machine", "assay": "Formation of biofilm on stainless steel coupons in a model system (viable counts in medium and on coupons)", "type": "cell-based", "description": "Formation of biofilm on stainless steel coupons in the presence or absence of an oxidizing biocide or a biofilm inhibiting substance was evaluated in the laboratory. The test system consisted of (a) three closed flasks each containing 20 L nutrient-rich medium (diluted three-fold from its recommended use concentration), (b) three closed cells containing stainless steel coupons hanging freely, and (c) three identical circulation pumps, each pump connected via plastic pipes to one of the flasks and to one of the cells. The system was placed in a thermostatic room at 35° C.\nAn innoculum containing a mixed culture of slime-forming-bacteria which had been isolated from a paper machine was added to each of the flasks. An oxidizer containing a 5 ppm mixture (expressed as total Cl2) of bromochlorodimethylhydantoin (an oxidizing biocide which is a source of HOBr and HOCl) (hereinafter “mixed halogens”) was added to the first flask once a day for the duration of the trial (4 days). […] The third flask served as a control for the two flasks treated with the oxidizing biocide or biofilm inhibiting substances. […] A diluted solution of sodium hypochlorite in deionized (DI) water (˜8000 ppm as total chlorine) was fed with one pump; a diluted solution of ammonium bromide (12500 ppm) was fed with the second pump. The two diluted solutions were synchronously mixed in a short glass pipe to form a pre-injection solution of biofilm inhibiting substance, using a pH meter to control and check the stability of the biofilm inhibiting substance formed. The biofilm inhibiting substance was fed to the test system immediately as it was produced.\nOn days 2 and 4, each closed cell was opened and 2 coupons were aseptically removed from each cell. At the same time samples of the circulating medium were taken as well. Sampling was conducted after feeding the daily slug dose of biocide.\nEach sample of medium was serially 10-fold diluted in sterile saline solution and plated in molten agar. Each coupon was thoroughly rinsed to remove any adhered particles, aseptically scraped, and the material removed by scraping was quantitatively dispersed in saline solution, vortexed, serially 10-fold diluted and plated in molten agar. Viable counts of microorganisms were taken after 48 h of incubation at 35° C. Viable counts of cells in the medium are presented as colony forming units (cfu) per ml; viable counts on the coupon surfaces are presented as cfu/cm^2."}, "[4]": {"settings": "day 1 of trial, cleaning period"}, "[5]": {"settings": "day 2 of trial, cleaning period"}, "[6]": {"settings": "day 3 of trial, cleaning period"}, "[7]": {"settings": "day 4 of trial, cleaning period"}, "[8]": {"settings": "day 6 of trial, cleaning period"}, "[9]": {"settings": "day 7 of trial, cleaning period"}, "[10]": {"settings": "day 8 of trial, cleaning period"}, "[11]": {"settings": "day 9 of trial, cleaning period"}, "[12]": {"settings": "day 10 of trial, cleaning period"}, "[13]": {"settings": "day 13 of trial, cleaning period"}, "[14]": {"settings": "day 16 of trial, clean paper machine"}, "[15]": {"settings": "day 17 of trial, clean paper machine"}, "[16]": {"settings": "day 20 of trial, clean paper machine"}, "[17]": {"settings": "day 21 of trial, clean paper machine"}, "[18]": {"settings": "day 24 of trial, clean paper machine"}, "[19]": {"settings": "day 27 of trial, clean paper machine"}}, "note": "Where two headings read alike, the source gives them in different places. Marks after values point to notes of the source that are not given here."}
{"substance": "bromide activated chloramine [Fuzzicide BAC]", "values": [{"measurement": "silo/slime formers", "setting": "[1]; [4]", "value": "1.0 × 10^1 cfu"}, {"measurement": "silo/total count", "setting": "[1]; [4]", "value": "1 × 10^0 cfu"}, {"measurement": "silo/slime formers", "setting": "[1]; [5]", "value": "5.92 × 10^3 cfu"}, {"measurement": "silo/total count", "setting": "[1]; [5]", "value": "5.68 × 10^4 cfu"}, {"measurement": "silo/slime formers", "setting": "[1]; [6]", "value": "2.0 × 10^2 cfu"}, {"measurement": "silo/total count", "setting": "[1]; [6]", "value": "4.8 × 10^4 cfu"}, {"measurement": "silo/slime formers", "setting": "[1]; [7]", "value": "1.0 × 10^0 cfu"}, {"measurement": "silo/total count", "setting": "[1]; [7]", "value": "7.6 × 10^3 cfu"}, {"measurement": "silo/slime formers", "setting": "[1]; [8]", "value": "1.2 × 10^2 cfu"}, {"measurement": "silo/total count", "setting": "[1]; [8]", "value": "3.8 × 10^3 cfu"}, {"measurement": "silo/slime formers", "setting": "[1]; [9]", "value": "1.0 × 10^0 cfu"}, {"measurement": "silo/total count", "setting": "[1]; [9]", "value": "4.0 × 10^3 cfu"}, {"measurement": "silo/slime formers", "setting": "[1]; [10]", "value": "4.0 × 10^1 cfu"}, {"measurement": "silo/total count", "setting": "[1]; [10]", "value": "1.68 × 10^3 cfu"}, {"measurement": "silo/slime formers", "setting": "[1]; [11]", "value": "2.2 × 10^2 cfu"}, {"measurement": "silo/total count", "setting": "[1]; [11]", "value": "5.0 × 10^3 cfu"}, {"measurement": "silo/slime formers", "setting": "[1]; [12]", "value": "1.0 × 10^0 cfu"}, {"measurement": "silo/total count", "setting": "[1]; [12]", "value": "1.18 × 10^3 cfu"}, {"measurement": "silo/slime formers", "setting": "[1]; [13]", "value": "1.0 × 10^1 cfu"}, {"measurement": "silo/total count", "setting": "[1]; [13]", "value": "2.4 × 10^3 cfu"}, {"measurement": "silo/slime formers", "setting": "[1]; [14]", "value": "1.0 × 10^0 cfu"}, {"measurement": "silo/total count", "setting": "[1]; [14]", "value": "2.0 × 10^2 cfu"}, {"measurement": "silo/slime formers", "setting": "[1]; [15]", "value": "1.0 × 10^0 cfu"}, {"measurement": "silo/total count", "setting": "[1]; [15]", "value": "6.0 × 10^1 cfu"}, {"measurement": "silo/slime formers", "setting": "[1]; [16]", "value": "1.0 × 10^0 cfu"}, {"measurement": "silo/total count", "setting": "[1]; [16]", "value": "3.0 × 10^2 cfu"}, {"measurement": "silo/slime formers", "setting": "[1]; [17]", "value": "1.0 × 10^0 cfu"}, {"measurement": "silo/total count", "setting": "[1]; [17]", "value": "7.5 × 10^2 cfu"}, {"measurement": "silo/slime formers", "setting": "[1]; [18]", "value": "1.0 × 10^0 cfu"}, {"measurement": "silo/total count", "setting": "[1]; [18]", "value": "1.0 × 10^2 cfu"}, {"measurement": "silo/slime formers", "setting": "[1]; [19]", "value": "1.0 × 10^0 cfu"}, {"measurement": "silo/total count", "setting": "[1]; [19]", "value": "1.1 × 10^2 cfu"}, {"measurement": "viable counts in process water samples taken from the silo", "setting": "[1]; initial cleaning period, irrespective of high or low residue of Fuzzicide BAC", "value": "10^3-10^4 viable cells per ml"}, {"measurement": "H2O2 feed rate maintaining de-inking bleaching targets", "setting": "[2]; after a few more days of semi-continuous dosing", "value": "~2.2", "unit": "kg/ton"}, {"measurement": "feed rate of H2O2 needed in order to maintain bleaching set point", "setting": "[2]; after about 48 hours of semi-continuous dosing, before trial 7-10 kg H2O2 per ton of waste paper", "value": "~4", "unit": "kg/ton"}, {"measurement": "Residual H2O2 concentration, % of 3.5% g/l", "setting": "catalase (Merck); BIS 8.1 ppm as total chlorine, catalase 26 units/ml, 60 min preincubation, 30 min after H2O2", "value": "21.4 % of 3.5% g/l"}, {"measurement": "Residual H2O2 concentration, % of 3.5% g/l", "setting": "catalase (Merck); BIS 60 ppm as total chlorine, catalase 0 units/ml (no enzyme)", "value": "100 % of 3.5% g/l"}, {"measurement": "Residual H2O2 concentration, % of 3.5% g/l", "setting": "catalase (Merck); BIS 60 ppm as total chlorine, catalase 26 units/ml", "value": "100 % of 3.5% g/l"}, {"measurement": "Residual H2O2 concentration, % of 3.5% g/l", "setting": "catalase (Merck); BIS 140 ppm as total chlorine, catalase 26 units/ml", "value": "100 % of 3.5% g/l"}, {"measurement": "state of coupons", "setting": "[3]; after 2 days", "value": "remained clean"}, {"measurement": "state of coupons", "setting": "[3]; after 4 days", "value": "remained clean"}, {"measurement": "control of planktonic microorganisms", "setting": "[3]; medium sample after four days, within detection limits", "value": "complete control of planktonic microorganisms"}, {"measurement": "Viable Counts After 2 Days, medium", "setting": "[3]; planktonic cells in circulating medium, day 2, daily slug dose (Mixed Halogens 5 ppm, Fuzzicide BAC […] expressed as Cl2), 35° C.", "value": "1 × 10^6 cfu/ml"}, {"measurement": "Viable Counts After 4 Days, medium", "setting": "[3]; planktonic cells in circulating medium, day 4, daily slug dose (Mixed Halogens 5 ppm, Fuzzicide BAC […] expressed as Cl2)", "value": "<100* cfu/ml"}, {"measurement": "Viable Counts After 2 Days, coupon surfaces", "setting": "[3]; stainless steel coupons, day 2, daily slug dose (Mixed Halogens 5 ppm, Fuzzicide BAC […] expressed as Cl2)", "value": "<27* cfu/cm^2"}, {"measurement": "Viable Counts After 4 Days, coupon surfaces", "setting": "[3]; stainless steel coupons, day 4, daily slug dose (Mixed Halogens 5 ppm, Fuzzicide BAC […] expressed as Cl2)", "value": "<27* Cfu/cm^2"}]}
